Laboratory results reported in publication PMC9953043, “Licochalcone E, a β-Amyloid Aggregation Inhibitor, Regulates Microglial M1/M2 Polarization via Inhibition of CTL1-Mediated Choline Uptake” (Biomolecules, 2023).

Target: T1, amyloid-β 1-42 (Aβ1-42) (Homo sapiens, UniProt P05067)
T1 construct: gene APP; Aβ1-42 peptide
Experiment: Thioflavin T aggregation assay with purified Aβ[…]-42 peptide
Assay type: biochemical

T1 sequence (P05067 672-713): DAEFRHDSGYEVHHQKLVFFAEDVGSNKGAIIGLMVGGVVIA

Compound | IC50 [µM]
COc1c(/C=C/C(=O)c2ccc(O)c(CC=C(C)C)c2)ccc(O)c1O [Lico D, Licochalcone D] | 30.4
C=C(C)[C@H](C)c1cc(/C=C/C(=O)c2ccc(O)cc2)c(OC)cc1O [Lico E, Licochalcone E] | 104
